Measured values: patent US10829458B2 (Araxes Pharma LLC, priority 2015, dated 2020)

Biological target: T1, KRAS G12C 1-169, his-tagged protein, GDP-loaded (Homo sapiens, UniProt P01116, G12C)
T1 construct: KRAS G12C 1-169, his-tagged protein, GDP-loaded
Test: Biochemical assay: covalent modification of KRAS G12C measured by mass spectrometry (RapidFire/TOF or Q-Exactive)
Conditions: covalent binding to KRAS G12C; compounds of structure (I)
Method in brief: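 Covalent adduct formation read by intact-mass spectrometry (TOF or Q Exactive Plus, charge envelopes deconvoluted into modified and unmodified species) after formic acid quench. Reactions contained 2 μM GDP-bound KRAS G12C 1-169 (his-tag) in Hepes/NaCl/MgCl2 buffer plus 10, 30 or 100 μM final compound, held 30 min, 2 h or 24 h at room temperature.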

SMILES | Binding %
C=CC(=O)N1CCN(c2nc(OCCN3CCOCC3)nc3c(F)c(-c4c(C)ccc5[nH]ncc45)c(Cl)cc23)CC1 (atropisomer, axis not shown) [Example I-32, (S)-1-(4-(6-chloro-8-fluoro-7-(5-methyl-1H-indazol-4-yl)-2-(2-morpholino-ethoxy)quinazolin-4-yl)piperazin-1-yl)prop-2-en-1-one] | + (+ indicates binding activity up to 50%)
C=CC(=O)N1CCN(c2nc(OCC3CN(c4ncccc4F)C3)nc3c(F)c(-c4c(C)ccc5[nH]ncc45)c(Cl)cc23)CC1 [Example I-158, 1-(4-(6-chloro-8-fluoro-2-((1-(3-fluoropyridin-2-yl)azetidin-3-yl)methoxy)-7-(5-methyl-1H-indazol-4-yl)quinazolin-4-yl)piperazin-1-yl) prop-2-en-1-one] | +++ (+++ indicates binding activity greater than 90%)
C=CC(=O)N1CCN(c2nc(OCCN3CC(F)(F)C3)nc3c(F)c(-c4c(O)cccc4F)c(Cl)cc23)CC1 (atropisomer, axis not shown) [Example I-125, (S)-1-(4-(6-chloro-2-(2-(3,3-difluoro-azetidin-1-yl)ethoxy)-8-fluoro-7-(2-fluoro-6-hydroxyphenyl)quinazolin-4-yl)piperazin-1-yl) prop-2-en-1-one] | +++ (+++ indicates binding activity greater than 90%)
C=CC(=O)N1CCN(c2nc(NCC3CCN(C4CC4)CC3)nc3c(F)c(-c4c(O)cccc4F)c(Cl)cc23)CC1 [Example I-150, 1-(4-(6-chloro-2-((1-cyclopropyl-piperidin-4-yl)methylamino)-8-fluoro-7-(2-fluoro-6-hydroxyphenyl)quinazolin-4-yl)piperazin-1-yl) prop-2-en-1-one] | +++ (+++ indicates binding activity greater than 90%)
C=CC(=O)N1CCN(c2nc(OCCN3CCC(F)(F)C3)nc3c(F)c(-c4c(O)cccc4F)c(Cl)cc23)CC1 (atropisomer, axis not shown) [Example I-98, (R)-1-(4-(6-chloro-2-(2-(3,3-difluoro-pyrrolidin-1-yl)ethoxy)-8-fluoro-7-(2-fluoro-6-hydroxyphenyl)quinazolin-4-yl)piperazin-1-yl) prop-2-en-1-one] | + (+ indicates binding activity up to 50%)
C=CC(=O)N1CCN(c2nc(OC)nc3c(OC)c(-c4c(O)cccc4F)c(Cl)cc23)CC1 [Example I-154, 1-(4-(6-chloro-7-(2-fluoro-6-hydroxyphenyl)-2,8-dimethoxy-quinazolin-4-yl)piperazin-1-yl) prop-2-en-1-one] | +++ (+++ indicates binding activity greater than 90%)
C=CC(=O)N1CCN(c2nc(OCCc3ccccn3)nc3c(F)c(-c4c(O)cccc4F)c(Cl)cc23)CC1 (atropisomer, axis not shown) [Example I-102, (R)-1-(4-(6-chloro-8-fluoro-7-(2-fluoro-6-hydroxyphenyl)-2-(2-(pyridin-2-yl)ethoxy)quinazolin-4-yl)piperazin-1-yl) prop-2-en-1-one] | + (+ indicates binding activity up to 50%)
C=CC(=O)N1CCN(c2nc(OCCC3CCN(C(C)C)CC3)nc3c(F)c(-c4c(O)cccc4F)c(Cl)cc23)CC1 [Example I-180, 1-(4-(6-chloro-8-fluoro-7-(2-fluoro-6-hydroxyphenyl)-2-(2-(1-isopropyl-piperidin-4-yl)ethoxy)quinazolin-4-yl)piperazin-1-yl) prop-2-en-1-one] | +++ (+++ indicates binding activity greater than 90%)
C=CC(=O)N1CCN(c2nc(OC3CCOCC3)nc3c(F)c(-c4c(O)cccc4F)c(Cl)cc23)CC1 [Example I-18, 1-(4-(6-chloro-8-fluoro-7-(2-fluoro-6-hydroxyphenyl)-2-(tetrahydro-2H-pyran-4-yloxy)quinazolin-4-yl)piperazin-1-yl)prop-2-en-1-one] | +++ (+++ indicates binding activity greater than 90%)
C=CC(=O)N1CCN(c2nc(OCCN3CCOCC3)nc3c(F)c(-c4c(O)cccc4F)c(Cl)cc23)CC1 (atropisomer, axis not shown) [Example I-29, (S)-1-(4-(6-chloro-8-fluoro-7-(2-fluoro-6-hydroxyphenyl)-2-(2-morpholino-ethoxy)quinazolin-4-yl)piperazin-1-yl)prop-2-en-1-one] | +++ (+++ indicates binding activity greater than 90%)
C=CC(=O)N1CCN(c2nc(NC3CCN(C(C)C)CC3)nc3c(F)c(-c4c(C)ccc5[nH]ncc45)c(Cl)cc23)CC1 [Example I-136, 1-(4-(6-chloro-8-fluoro-2-(1-isopropyl-piperidin-4-ylamino)-7-(5-methyl-1H-indazol-4-yl)quinazolin-4-yl)piperazin-1-yl) prop-2-en-1-one] | +++ (+++ indicates binding activity greater than 90%)
C=CC(=O)N1CCN(c2nc(NCCc3ncccn3)nc3c(F)c(-c4c(C)ccc5[nH]ncc45)c(Cl)cc23)CC1 [Example I-169, 1-(4-(6-chloro-8-fluoro-7-(5-methyl-1H-indazol-4-yl)-2-((2-(pyrimidin-2-yl)ethyl)amino)quinazolin-4-yl)piperazin-1-yl) prop-2-en-1-one] | ++ (++ indicates binding activity from 50 to 90%)
C=CC(=O)N1CCN(c2nc(OC3CCOCC3)nc3c(F)c(-c4c(C)ccc5[nH]ncc45)c(Cl)cc23)CC1 [Example I-13, 1-(4-(6-chloro-8-fluoro-7-(5-methyl-1H-indazol-4-yl)-2-(tetrahydro-2H-pyran-4-yloxy)quinazolin-4-yl)piperazin-1-yl)prop-2-en-1-one] | +++ (+++ indicates binding activity greater than 90%)
C=CC(=O)N1CCN(c2nc(NC3CN(c4ncccn4)C3)nc3c(F)c(-c4c(O)cccc4F)c(Cl)cc23)CC1 [Example I-182, 1-(4-(6-chloro-8-fluoro-7-(2-fluoro-6-hydroxyphenyl)-2-((1-(pyrimidin-2-yl)azetidin-3-yl)amino)quinazolin-4-yl)piperazin-1-yl) prop-2-en-1-one] | + (+ indicates binding activity up to 50%)
C=CC(=O)N1CCN(c2nc(CCN3CC(F)(F)C3)nc3c(F)c(-c4c(O)cccc4F)c(Cl)cc23)CC1 [Example I-200, 1-(4-(6-chloro-2-(2-(3,3-difluoro-azetidin-1-yl)ethyl)-8-fluoro-7-(2-fluoro-6-hydroxyphenyl)quinazolin-4-yl)piperazin-1-yl) prop-2-en-1-one] | ++ (++ indicates binding activity from 50 to 90%)
C=CC(=O)N1CCN(c2nc(N3CC(N4CCC4)C3)nc3c(F)c(-c4c(O)cccc4F)c(Cl)cc23)CC1 [Example I-162, 1-(4-(2-([1,3′-biazetidin]-1′-yl)-6-chloro-8-fluoro-7-(2-fluoro-6-hydroxyphenyl)quinazolin-4-yl)piperazin-1-yl) prop-2-en-1-one] | + (+ indicates binding activity up to 50%)
C=CC(=O)N1CCN(c2nc(NC3CCCN(C(C)C)C3)nc3c(F)c(-c4c(O)cccc4F)c(Cl)cc23)CC1 (stereo not drawn) [Example I-121, 1-(4-(6-chloro-8-fluoro-7-(2-fluoro-6-hydroxyphenyl)-2-(1-isopropyl-piperidin-3-ylamino)quinazolin-4-yl)piperazin-1-yl) prop-2-en-1-one] | +++ (+++ indicates binding activity greater than 90%)
C=CC(=O)N1CCN(c2nc(NC3CCN(C4CCC4)CC3)nc3c(F)c(-c4c(C)ccc5[nH]ncc45)c(Cl)cc23)CC1 [Example I-132, 1-(4-(6-chloro-2-(1-cyclobutyl-piperidin-4-ylamino)-8-fluoro-7-(5-methyl-1H-indazol-4-yl)quinazolin-4-yl)piperazin-1-yl) prop-2-en-1-one] | +++ (+++ indicates binding activity greater than 90%)
C=CC(=O)N1CCN(c2nc(OCCN3CCC(F)CC3)nc3c(F)c(-c4c(O)cccc4F)c(Cl)cc23)CC1 [Example I-76, 1-(4-(6-chloro-8-fluoro-7-(2-fluoro-6-hydroxyphenyl)-2-(2-(4-fluoro-piperidin-1-yl)ethoxy)quinazolin-4-yl)piperazin-1-yl)prop-2-en-1-one] | +++ (+++ indicates binding activity greater than 90%)

Same assay, conditions: covalent binding to KRAS G12C; compounds of structure (II)

SMILES | Binding %
O=C(/C=C/CN1CCOCC1)N1CCN(c2ncnc3c(F)c(-c4c(O)cccc4F)c(Cl)cc23)CC1 [II-1, (E)-1-(4-(6-chloro-8-fluoro-7-(2-fluoro-6-hydroxyphenyl)quinazolin-4-yl)piperazin-1-yl)-4-morpholinobut-2-en-1-one] | + (+ indicates binding activity up to 50%)
C=CC(=O)N1CC2(CCN(c3ncnc4c(F)c(-c5c(O)cccc5F)c(Cl)cc34)C2)C1 [II-4, 1-(6-(6-chloro-8-fluoro-7-(2-fluoro-6-hydroxyphenyl)quinazolin-4-yl)-2,6-diazaspiro[3.4]octan-2-yl)prop-2-en-1-one] | + (+ indicates binding activity up to 50%)

Same assay, conditions: covalent binding to KRAS G12C; compounds of structure (III)

SMILES | Binding %
C=CC(=O)N1CCN(c2ncnc3c(F)c(-c4cc(O)cc5ccccc45)c(Cl)cc23)[C@@H](C)C1 [III-30, 1-((3S)-4-(6-chloro-8-fluoro-7-(3-hydroxy-naphthalen-1-yl)quinazolin-4-yl)-3-methyl-piperazin-1-yl)prop-2-en-1-one] | +++ (+++ indicates binding activity greater than 90%)
C=CC(=O)N1CCN(c2ncnc3c(F)c(-c4c(O)cccc4F)c(Cl)cc23)[C@H](C)C1 [III-12, 1-((3R)-4-(6-chloro-8-fluoro-7-(2-fluoro-6-hydroxy-phenyl)quinazolin-4-yl)-3-methyl-piperazin-1-yl)prop-2-en-1-one] | + (+ indicates binding activity up to 50%)
C=CC(=O)N1CCN(c2ncnc3c(F)c(-c4c(C)ccc5cn[nH]c45)c(Cl)cc23)[C@@H](C)C1 [III-3, 1-((3S)-4-(6-chloro-8-fluoro-7-(6-methyl-1H-indazol-7-yl)quinazolin-4-yl)-3-methyl-piperazin-1-yl)prop-2-en-1-one] | ++ (++ indicates activity from 50% to 90%)
